Patent publication US10786450B2, “Process for preparing a dry powder formulation comprising an anticholinergic, a corticosteroid and a beta-adrenergic” (CHIESI FARMACEUTICI S.p.A., priority 2017, dated 2020)

Key:
[1] = Aerosol performance by Next Generation Impactor (NGI) from multidose dry powder inhaler; assay type: physicochemical; conditions: Example 3 powder formulation; for Mid Fine particle Fraction: 2.0 to 5.0 microns; for Delivered Dose: multidose DPI of WO 2004/012801, 3 doses; for Mid Fine Particle Mass: particle size between 2.0 and 5.0 microns; for Fine Particle Mass: particle size equal to or lower than 5.0 microns; for Fine Particle Fraction: ratio fine particle mass to delivered dose
Description: After aerosolization of 3 doses from the inhaler device, the NGI apparatus was disassembled and the amounts of drug deposited in the stages were recovered by washing with a solvent mixture and then quantified by High-Performance Liquid Chromatography (HPLC). […] (v) the fine particle fraction (FPF) which is the ratio between the fine particle mass and the delivered dose; and (vi) the MMAD.

[2] = micronized active ingredient as used in Example 3
Description: The size of the particles active is determined by measuring the characteristic equivalent sphere diameter, known as volume diameter, by laser diffraction.
Microparticles as obtained in Example 2 were used. […] Beclometasone dipropionate (BDP) having the following particle size was used: d(v0.1)=0.7 micron; d(v0.5)=1.5 micron; and d(v0.9)=2.8 micron.

| Compound | Extrafine Particle Fraction <1 μm [1] [%] | Extrafine Particle Fraction <2 μm [1] [%] | Extrafine Particle Mass <1 μm [1] [µg] | Extrafine Particle Mass <2 μm [1] [µg] | MMAD [1] [μm] | Mid Fine particle Fraction [1] [%] | Delivered Dose [1] [µg] | Mid Fine Particle Mass [1] [µg] | Fine Particle Mass [1] [µg] | Fine Particle Fraction [1] [%] | d(v0.1) [2] [micron] | d(v0.5) [2] [micron] | d(v0.9) [2] [micron] |
| --- | --- | --- | --- | --- | --- | --- | --- | --- | --- | --- | --- | --- | --- |
| C[N+]1(C)CCC(OC(=O)C(O)(c2ccccc2)C2CCCC2)C1 (racemic) [GB, glycopyrronium bromide] | 9.8 | 26.4 | 1.1 | 2.9 | 1.9 | 21.6 | 11.1 | 2.4 | 5.4 | 48.1 |  |  |  |
| CCC(=O)OCC(=O)[C@@]1(OC(=O)CC)[C@@H](C)C[C@H]2[C@@H]3CCC4=CC(=O)C=C[C@]4(C)[C@@]3(Cl)[C@@H](O)C[C@@]21C [BDP, beclometasone dipropionate] | 13.9 | 32.1 | 12.4 | 28.5 | 1.6 | 17.1 | 88.5 | 15.2 | 43.6 | 49.3 | 0.7 | 1.5 | 2.8 |
